# Measurements taken from patent publication US20040067927A1, “Substituted alkyldiamines” (priority 2003, published 2004).
# Square brackets hold non-standard residues; d marks the D form. Peptide text beside a SMILES is read from it. * marks the point of attachment. Sta = CC(C)C[C@H](N)[C@@H](O)CC(=O)O; Isovaleryl = CC(C)CC(=O)*
# Tested on: P. falciparum
# Assay: not given
# Settings: cited from earlier work
row,SMILES,growth of P. falciparum in red blood cells in vitro
1,CC(C)CC(=O)N[C@H](C(=O)N[C@H](C(=O)N[C@@H](CC(C)C)[C@@H](O)CC(=O)N[C@@H](C)C(=O)N[C@@H](CC(C)C)[C@@H](O)CC(=O)O)C(C)C)C(C)C [Pepstatin] (Isovaleryl-VV[Sta]A[Sta]-OH),inhibits the growth

# Target: plasmepsin II (Plasmodium falciparum, UniProt P46925)
# Assay: FRET assay for plasmepsin II
# Assay type: biochemical
# Settings: pH 5, 37° C., 40 min, substrate 1 μM
# Description: The fluorescence resonance energy transfer (FRET) assay for HIV, plasmepsin II, human cathepsin D and human cathepsin E.
# The assay conditions were selected according, to reports in the literature. The FRET assay was performed in white polysorp plates (Fluoronunc, cat n° 437842 A). The assay buffer consisted of 50 mM Na acetate pH 5, 12,5% glycerol, 0.1% BSA+392 mM NaCl (for HIV-protease). The incubates per well were composed of:
# 10 μl inhibitor (in DMSO)
# 10 μl of the corresponding substrate in DMSO (see table A) to a final concentration of 1 μM
# 20 μl of enzyme to a final amount of x ng per assay tube (x=10 ng/assay tube plasmepsin II, x=100 ng/assay tube HIV-protease, x=10 ng/assay tube human cathepsin E and x=20 ng/assay tube human cathepsin D)
# The reactions were initiated by addition of the enzyme. The assay was incubated at 37° C. for 30 min (for human cathepsin E), 40 min (for plasmepsin II and HIV-protease) or 120 min (for human cathepsin D). The reactions were stopped by adding 10% (v/v) of a 1 M solution of Tris-base. Product-accumulation was monitored by measuring the fluorescence at 460 nm.
# Auto-fluorescence of all the test substances is determined in assay buffer in the absence of substrate and enzyme and this value was subtracted from the final signal.
# plasmepsin II, sequence (P46925 125-453): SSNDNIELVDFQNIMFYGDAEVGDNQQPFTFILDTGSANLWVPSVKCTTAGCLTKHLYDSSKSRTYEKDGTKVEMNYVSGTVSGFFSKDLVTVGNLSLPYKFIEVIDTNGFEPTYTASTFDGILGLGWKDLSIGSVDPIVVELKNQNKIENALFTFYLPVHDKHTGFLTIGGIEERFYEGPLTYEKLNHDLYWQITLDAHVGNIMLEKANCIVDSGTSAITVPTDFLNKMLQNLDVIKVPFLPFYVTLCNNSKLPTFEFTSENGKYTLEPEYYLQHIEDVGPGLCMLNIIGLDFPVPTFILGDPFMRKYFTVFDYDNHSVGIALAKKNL
row,SMILES,IC50 [nM]
1,CCCCCc1ccc(CN(CCN(CCCC)CCCC)Cc2ccc(OCc3ccccc3)cc2)cc1 [Example 20],846
2,CCCCCc1ccc(C(=O)N(CCN(CCCC)CCCC)Cc2ccc(Oc3ccccc3)cc2)cc1 [Example 21],469
3,CCCCCc1ccc(C(=O)N(CCN(CCCC)CCCC)Cc2ccc(OCc3ccccc3)c(OCc3ccccc3)c2)cc1 [Example 22],858
4,CCCCCc1ccc(C(=O)N(CCN(CCCC)CCCC)Cc2ccc(C(F)(F)F)cc2)cc1 [Example 25],596
5,CCCCCc1ccc(C(=O)N(CCN(CCCC)CCCC)Cc2ccc(OCCCC)cc2)cc1 [Example 38],325
6,CCCCCc1ccc(C(=O)N(CCCN(CCCC)CCCC)Cc2ccc(OCc3ccccc3)cc2)cc1 [Example 51],691
7,CCCCCc1ccc(C(=O)N(CCN(CCCC)CCCC)Cc2ccc(-c3ccc(OCCO)cc3)cc2)cc1 [Example 53],125
8,CCCCCc1ccc(C(=O)N(CCN(CCCC)CCCC)Cc2ccc(-c3cncnc3)cc2)cc1 [Example 57],351
9,CCCCCc1ccc(C(=O)N(CCN(CCO)CCO)Cc2ccc(OCC)cc2)cc1 [Example 69],8230

# Continued, values first:
row,IC50 [nM],SMILES
1,115,CCCCCc1ccc(C(=O)N(CCN(CCCC)CCCC)Cc2ccc(OCc3ccccc3)cc2)cc1 [Example 1]
2,252,CCCCCc1ccc(C(=O)N(CCN(CCCC)CCCC)Cc2ccc(-c3ccccc3)cc2)cc1 [Example 23]
3,834,CCCCCc1ccc(C(=O)N(CCCN(CCCC)CCCC)Cc2ccc(-c3ccccc3)cc2)cc1 [Example 52]
4,312,CCCCCc1ccc(C(=O)N(CCN(CCCC)CCCC)Cc2ccc(-c3ccccc3F)cc2)cc1 [Example 54]
5,659,CCCCCc1ccc(C(=O)N(CCN(CCCC)CCCC)Cc2ccc(-c3ccccc3Cl)cc2)cc1 [Example 56]
6,754,CCCCCc1ccc(C(=O)N(CCN(CCCC)CCCC)Cc2ccc(-c3cccc(OC(F)(F)F)c3)cc2)cc1 [Example 58]
7,380,CCCCCc1ccc(C(=O)N(CCN(CCCC)CCCC)Cc2ccc(-c3ccccn3)cc2)cc1 [Example 59]
8,198,CCCCCc1ccc(C(=O)N(CCN(CCCC)CCCC)Cc2ccc(-c3ccc(CC(=O)OC)cc3)cc2)cc1 [Example 60]
9,57,CCCCCc1ccc(C(=O)N(CCN(CCCC)CCCC)Cc2ccc(-c3ccc4c(c3)OCO4)cc2)cc1 [Example 61]
10,714,CCCCCc1ccc(CN(CCN(CCCC)CCCC)Cc2ccc(-c3ccc(C#N)cc3)cc2)cc1 [Example 68]
